The values that follow come from patent US11707444B2, “Antiviral composition for SARS-CoV-2 containing cannabinoids as active ingredient” (priority 2020, dated 2023).

Molecules are shown by their SMILES. Read-outs that look alike come from different tables or passages of the source.

The test system of data set [1] is SARS-CoV-2. The experiment in a line: microbe, parasite or virus in culture. The class given is cell-based, SARS-CoV-2 (βCoV/KOR/KCDC03/2020).
Data set [2] addresses CBR2 (Homo sapiens, UniProt P34972). To be noted: reported (Pertwee 2008); cited from earlier work.
For data set [3] the following is noted: 100 mg of CBD, healthy volunteers, reported; cited from earlier work.
The conditions of data set [4]: 0.3 mg/kg/day, report; cited from earlier work.
The conditions of data set [5]: cited from earlier work.
For data set [6], the system named is Vero cells. The experiment in a line: Vero cell viability in the dose-response curve assay. The class given is cell-based. How it is done:
Dose-response curve (DRC) analysis was performed according to a conventionally known method (Jeon, S., Ko, M., Lee, J., Choi, I., Byun, S Y, Park, S., Shum, D., and Kim, S. (2020). Identification of antiviral drug candidates against SARS-CoV-2 from FDA-approved drugs. Antimicrobial Agents and Chemotherapy). Briefly, the Vero cells were seeded at 1.2×10^4 cells per well in DMEM containing 1× Antibiotic-Antimycotic solution (Gibco) and 2% FBS in a 384-well, μClear plate (Greiner Bio-One) and maintained for 24 h. After that, the cells were treated twice with compounds in the concentration range of 0.05-100 μM. A 9-point dose-response curve (DRC) was generated. For viral infection, the plate was transferred to a BSL-3 isolation facility and SARS-CoV-2 was added to an MOI value of 0.0125. Next, the cells were fixed at 24 hpi with 4% PFA and measured using the immunofluorescence method Operetta (Perkin Elmer).
Images acquired using software within the Pasteur Institute in Korea were used to estimate the infection rate and cell number, and antiviral activity was normalized to negative (0.5% DMSO) and positive controls (mock). The dose-response curve (DRC) was measured using the sigmoidal dose-response model Y=Bottom+(Top−Bottom)/(1+(IC50/X)^Hillslope) using Prism or 7XLfit 4 software. Finally, IC50 values were measured for curves fitted to the normalized activity data set. […]

[7] abbreviates: Severe acute respiratory syndrome coronavirus 2, Vero; read-out: IC50, antiviral activity against SARS-CoV-2.

CBR2, sequence (P34972 whole entry): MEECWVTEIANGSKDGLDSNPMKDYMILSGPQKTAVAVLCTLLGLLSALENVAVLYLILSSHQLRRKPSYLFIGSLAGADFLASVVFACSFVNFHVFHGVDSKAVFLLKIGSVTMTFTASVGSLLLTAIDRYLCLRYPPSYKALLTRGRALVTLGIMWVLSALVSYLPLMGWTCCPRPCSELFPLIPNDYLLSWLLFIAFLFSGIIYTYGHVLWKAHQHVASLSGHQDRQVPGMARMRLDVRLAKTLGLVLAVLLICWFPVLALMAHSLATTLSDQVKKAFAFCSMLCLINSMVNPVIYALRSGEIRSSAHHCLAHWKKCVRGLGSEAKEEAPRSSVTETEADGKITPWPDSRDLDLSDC

With `Cc1cccc(C)c1OCC(=O)N[C@@H](Cc1ccccc1)[C@@H](O)C[C@H](Cc1ccccc1)NC(=O)[C@H](C(C)C)N1CCCNC1=O` [lopinavir, reference compound], in data set [1] (setting [7]), the IC50 stood at 9.78 µM.
As for `CCC(CC)COC(=O)[C@H](C)N[P@](=O)(OC[C@H]1O[C@@](C#N)(c2ccc3c(N)ncnn23)[C@H](O)[C@@H]1O)Oc1ccccc1` [remdesivir, reference compound], the IC50 in data set [1] (Severe acute respiratory syndrome coronavirus 2, Vero, read-out: IC50, antiviral activity against SARS-CoV-2) came to 13.2 µM.
`CCCCCc1cc(O)c2c(c1)OC(C)(C)[C@@H]1CCC(C)=C[C@@H]21` [Compound T4, Δ^9-Tetrahydrocannabinol]: the IC50 in data set [1] (setting [7]) stood at 10.2 µM. Moreover, the “action at CBR2” value in data set [2] is recorded as “partial agonist”.
As for `CCCCCc1cc(O)c2c(c1)OC(C)(C)c1ccc(C)cc1-2` [Compound T7, Cannabinol], the IC50 in data set [1] (setting [7]) is 11.1 µM.
Consider `C=C(C)[C@@H]1CCC(C)=C[C@H]1c1c(O)cc(CCCCC)cc1O` [Compound T22, Cannabidiol], for which the concentration for half-maximal inhibition (IC50) in data set [1] (setting [7]) turned out to be 7.91 µM. Besides, the inhibition at 12.5 µM in data set [1] (Severe acute respiratory syndrome coronavirus 2; at 12.50 μM, Vero cells) is 99.2%. Moreover, the safety and tolerability entry in data set [3] is “safe and tolerable”. In data set [4], the “effect in Crohn's disease” value is reported as “effective”. In addition, the “dose reported to be safe” value in data set [5] is “up to 60 mg per day”. In data set [6] (at 12.50 μM), the Vero cell viability is listed as 97.46%. Further, in data set [6] (at 50 μM), the host cell viability entry was “decreased sharply”.
As for `CCCCCc1cc2c(c(O)c1C(=O)O)[C@@H]1C=C(C)CC[C@H]1C(C)(C)O2` [Compound T3, Δ9-Tetrahydrocannabinolic acid], the 50% inhibitory concentration (IC50) in data set [1] (setting [7]) is 13.2 µM.
As to `CCN(CC)CCCC(C)Nc1ccnc2cc(Cl)ccc12` (stereo not drawn) [chloroquine, reference compound], in data set [1] (setting [7]), the IC50 stood at 8.17 µM.
Same read-out and setting: the value for `C=C(C)[C@@H]1CCC(C)=C[C@H]1c1c(O)cc(CCCCC)c(C(=O)O)c1O` [Compound T23, Cannabidiolic acid] was 37.6 µM.
